Experimental data published in EPA's ToxValDB 9.5 (doi:10.2903/j.efsa.2018.5126).
≈ marks a conversion by molar mass, not a printed value.

Columns and labels:
Anas platyrhynchos = details: acute; oral; unspecified; mortality
Colinus virginianus = details: chronic
Rattus norvegicus = details: for LD50: acute, mortality
Apis mellifera = details: acute, mortality
Bibionidae = details: chronic/long-term; duration: 28 days
Landoltia sp. = details: chronic/long-term; duration: 7 days; frond number
Navicula pelliculosa = details: acute; duration: 72 hours; growth
Neomysis kadiakensis = details: chronic/long-term; duration: 28 days; reproduction
Oncorhynchus mykiss = details: acute; duration: 96 hours; mortality
Oryctolagus sp. = details: reproduction developmental; body weight
Tagia sp. = details: chronic/long-term; duration: 56 days; growth
Aphidius rhopalosiphi = test: LR50; higher = less toxic; details: acute; mortality

SMILES	LD50 (Anas platyrhynchos) [mg/kg-day]	NOAEL (Colinus virginianus) [mg/kg-day]	LD50 (Rattus norvegicus) [mg/kg-day]	NOAEL (Rattus norvegicus; reproduction developmental, body weight) [mg/kg-day]	LC50 (acute, duration: 96 hours, mortality) [µg/mL]	NOEC (chronic) [mg/L]	LD50 (Apis mellifera; dermal) [µg/piece]	LD50 (Apis mellifera; oral, unspecified) [µg/piece]	NOEC (Bibionidae) [mg/L]	NOEC (Landoltia sp.) [mg/L]	NOEC (Navicula pelliculosa) [mg/L]	NOEC (Neomysis kadiakensis) [mg/L]	LC50 (Oncorhynchus mykiss) [µg/mL]	NOAEL (Oryctolagus sp.) [mg/kg-day]	NOAEL (Rattus norvegicus; chronic, duration: 26 months, organ weight) [mg/kg-day]	NOAEL (Rattus norvegicus; reproduction developmental, histopathology: nonneoplastic) [mg/kg-day]	NOAEL (Rattus norvegicus; subchronic, duration: 90 days, oral, histopathology: nonneoplastic) [mg/kg-day]	NOEC (Tagia sp.) [mg/kg]	LR50 (Aphidius rhopalosiphi) [g/ha]
N#Cc1c(O)c(Cl)c(Cl)c(C#N)c1Cl [4-Hydroxy-2,5,6-trichloroisophthalonitrile]	158	10.1	242	1.5															
N#Cc1c(Cl)c(Cl)c(Cl)c(C#N)c1Cl [Chlorothalonil]	> 2000		> 5000		0.0107 (≈ 0.0402 µM)	0.003	> 40	> 40	0.04	0.187	0.013	0.0004	0.017 (≈ 0.0639 µM)	< 5	1.8	< 22.6	1.5	0.75	> 262
